Test results reported in ChEMBL document CHEMBL1240307, “A functional genomics approach to the mode of action of apratoxin A” (Nat Chem Biol, 2006).

Experiments:
[1] = system: HT-29; test: Antitumor activity against human HT-29 cells assessed as down-regulation of RAB11B mRNA expression at 2 nM after 6 hrs relative to control; format: functional
[2] = system: UACC-62; test: Cytotoxicity against human UACC62 cells by sulforhodamine B assay; format: functional
[3] = system: HT-29; test: Antitumor activity against human HT-29 cells assessed as down-regulation of CDC25A mRNA expression at 2 nM after 6 hrs relative to control; format: functional
[4] = system: SR; test: Cytotoxicity against human SR cells by sulforhodamine B assay; format: functional
[5] = system: NCI-H226; test: Cytotoxicity against human NCI-H226 cells by sulforhodamine B assay; format: functional
[6] = system: K562; test: Cytotoxicity against human K562 cells by sulforhodamine B assay; format: functional
[7] = system: U2OS; test: Cell cycle arrest in human U2OS cells overexpressing mouse Fgfr1 assessed as accumulation at G1 phase at 15 nM after 48 hrs by CMV-GFP reporter assay method (reference value: 58%); format: functional
[8] = system: SF-295; test: Cytotoxicity against human SF295 cells by sulforhodamine B assay; format: functional
[9] = system: U2OS; test: Cell cycle arrest in human U2OS cells assessed as accumulation at G1 phase at 50 nM after 48 hrs by FACS analysis (reference value: 49.8%); format: functional
[10] = system: SK-MEL-28; test: Cytotoxicity against human SK-MEL-28 cells by sulforhodamine B assay; format: functional
[11] = system: MDA-MB-231; test: Cytotoxicity against human MDA-MB-231 cells by sulforhodamine B assay; format: functional
[12] = system: HT-29; test: Antitumor activity against human HT-29 cells assessed as upregulation of KCNK10 mRNA expression at 10 nM after 12 hrs relative to control; format: functional
[13] = system: U2OS; test: Cell cycle arrest in human U2OS cells assessed as accumulation at S phase at 50 nM after 24 hrs by FACS analysis (reference value: 37.3%); format: functional
[14] = system: ACHN; test: Cytotoxicity against human ACHN cells by sulforhodamine B assay; format: functional
[15] = system: HT-29; test: Antitumor activity against human HT-29 cells assessed as down-regulation of CDC25A mRNA expression at 2 nM after 3 hrs relative to control; format: functional
[16] = system: Malme-3M; test: Cytotoxicity against human MALME-3M cells by sulforhodamine B assay; format: functional
[17] = system: HT-29; test: Antitumor activity against human HT-29 cells assessed as upregulation of HSPA1A mRNA expression at 2 nM after 12 hrs relative to control; format: functional
[18] = system: EKVX; test: Cytotoxicity against human EKVX cells by sulforhodamine B assay; format: functional
[19] = system: DU-145; test: Cytotoxicity against human DU145 cells by sulforhodamine B assay; format: functional
[20] = system: U2OS; test: Cell cycle arrest in human U2OS cells assessed as accumulation at S phase at 5 nM after 48 hrs by FACS analysis (reference value: 37.3%); format: functional
[21] = system: HT-29; test: Antitumor activity against human HT-29 cells assessed as down-regulation of GTSE1 mRNA expression at 2 nM after 6 hrs relative to control; format: functional
[22] = system: HT-29; test: Antitumor activity against human HT-29 cells assessed as upregulation of HSPA1A mRNA expression at 10 nM after 3 hrs relative to control; format: functional
[23] = Cytotoxicity against resting human CD4+ T cell assessed as cell viability after 3 days by fluorescence detection method; format: cell-based; conditions: 72 h
[24] = system: SW-620; test: Cytotoxicity against human SW620 cells by sulforhodamine B assay; format: functional
[25] = system: HT-29; test: Antitumor activity against human HT-29 cells assessed as down-regulation of CDC25A mRNA expression at 10 nM after 12 hrs relative to control; format: functional
[26] = system: HT-29; test: Antitumor activity against human HT-29 cells assessed as upregulation of KCNK10 mRNA expression at 2 nM after 12 hrs relative to control; format: functional
[27] = system: HT-29; test: Antitumor activity against human HT-29 cells assessed as down-regulation of CDC25A mRNA expression at 10 nM after 6 hrs relative to control; format: functional
[28] = system: HT-29; test: Antitumor activity against human HT-29 cells assessed as upregulation of RASSF4 mRNA expression at 10 nM after 6 hrs relative to control; format: functional
[29] = system: HT-29; test: Antitumor activity against human HT-29 cells assessed as down-regulation of RAB11B mRNA expression at 10 nM after 12 hrs relative to control; format: functional
[30] = system: HT-29; test: Antitumor activity against human HT-29 cells assessed as down-regulation of RAB11B mRNA expression at 10 nM after 6 hrs relative to control; format: functional
[31] = system: HT-29; test: Antitumor activity against human HT-29 cells assessed as down-regulation of RAB11B mRNA expression at 10 nM after 3 hrs relative to control; format: functional
[32] = system: HT-29; test: Antitumor activity against human HT-29 cells assessed as upregulation of DDIT4 mRNA expression at 10 nM after 3 hrs relative to control; format: functional
[33] = system: HT-29; test: Antitumor activity against human HT-29 cells assessed as down-regulation of GTSE1 mRNA expression at 2 nM after 12 hrs relative to control; format: functional
[34] = system: SK-OV-3; test: Cytotoxicity against human SKOV3 cells by sulforhodamine B assay; format: functional
[35] = system: HT-29; test: Antitumor activity against human HT-29 cells assessed as upregulation of MGC4504 mRNA expression at 2 nM after 6 hrs relative to control; format: functional
[36] = system: CAKI-1; test: Cytotoxicity against human Caki1 cells by sulforhodamine B assay; format: functional
[37] = system: HT-29; test: Antitumor activity against human HT-29 cells assessed as upregulation of HSPA1A mRNA expression at 2 nM after 6 hrs relative to control; format: functional
[38] = system: U2OS; test: Cell cycle arrest in human U2OS cells assessed as accumulation at G1 phase at 50 nM after 24 hrs by FACS analysis (reference value: 49.8%); format: functional
[39] = system: LOX IMVI; test: Cytotoxicity against human LOXIMVI cells by sulforhodamine B assay; format: functional
[40] = system: SK-MEL-2; test: Cytotoxicity against human SK-MEL-2 cells by sulforhodamine B assay; format: functional
[41] = system: HT-29; test: Antitumor activity against human HT-29 cells assessed as upregulation of MGC4504 mRNA expression at 10 nM after 6 hrs relative to control; format: functional
[42] = system: RXF 393; test: Cytotoxicity against human RXF393 cells by sulforhodamine B assay; format: functional
[43] = system: UACC-257; test: Cytotoxicity against human UACC257 cells by sulforhodamine B assay; format: functional
[44] = system: HT-29; test: Antitumor activity against human HT-29 cells assessed as upregulation of RASSF4 mRNA expression at 2 nM after 12 hrs relative to control; format: functional
[45] = system: HOP-62; test: Cytotoxicity against human HOP62 cells by sulforhodamine B assay; format: functional
[46] = system: M14; test: Cytotoxicity against human M14 cells by sulforhodamine B assay; format: functional
[47] = Cytotoxicity against human […] cells by sulforhodamine B assay; format: functional
[48] = system: HT-29; test: Antitumor activity against human HT-29 cells assessed as down-regulation of GTSE1 mRNA expression at 10 nM after 6 hrs relative to control; format: functional
[49] = system: SN12C; test: Cytotoxicity against human SN12C cells by sulforhodamine B assay; format: functional
[50] = read-out: LC50 (the source's name)

With `CC[C@H](C)[C@H]1C(=O)N2CCC[C@H]2C(=O)O[C@H](C(C)(C)C)C[C@@H](C)C[C@H](O)[C@H](C)C2=N[C@@H](/C=C(\C)C(=O)N[C@@H](Cc3ccc(OC)cc3)C(=O)N(C)[C@@H](C)C(=O)N1C)CS2` [APRATOXIN A] the “fold change (FC)” value [1] was “<=2”, the GI50 [2] was 3.28 nM and the “fold change (FC)” value [3] was “<=2”. For the same compound, the GI50 [4] was 1.5 nM, the CC50 [4, 50] was 27.4 nM and the GI50 [5] was 1.31 nM. For the same compound, the GI50 [6] was 14.8 nM, the inhibition at 0.015 µM [7] was 58% and the GI50 [8] was 1.26 nM. For the same compound, the CC50 [8, 50] was 70.3 nM, the inhibition at 0.05 µM [9] was 50.2% and the GI50 [10] was 5.49 nM. For the same compound, the GI50 [11] was 1.46 nM, the “fold change (FC)” value [12] was “<=2” and the inhibition at 0.05 µM [13] was 22.6%. The GI50 [14] was 2.69 nM, the “fold change (FC)” value [15] was “<=2” and the GI50 [16] was 4.77 nM. The “fold change (FC)” value [17] was “<=2”, the GI50 [18] was 7.56 nM and the GI50 [19] was 10.3 nM. The inhibition at 0.005 µM [20] was 5.5%, the “fold change (FC)” value [21] was “<=2” and the “fold change (FC)” value [22] was 2.21. For the same compound, the IC50 [23] was 1800 nM, the GI50 [24] was 3.16 nM and the “fold change (FC)” value [25] was -2.79. For the same compound, the “fold change (FC)” value [26] was “<=2”, the “fold change (FC)” value [27] was “<=2” and the “fold change (FC)” value [28] was “<=2”. For the same compound, the “fold change (FC)” value [29] was “<=2”, the “fold change (FC)” value [30] was “<=2” and the “fold change (FC)” value [31] was “<=2”. For the same compound, the “fold change (FC)” value [32] was 4.09, the “fold change (FC)” value [33] was “<=2” and the GI50 [34] was 5.27 nM. For the same compound, the “fold change (FC)” value [35] was 7.57, the GI50 [36] was 4.05 nM and the “fold change (FC)” value [37] was 2.56. It also gave an inhibition at 0.05 µM [38] of 68.3%, a GI50 [39] of 2.3 nM and a CC50 [39, 50] of 23.2 nM. For the same compound, the GI50 [40] was greater than 100 nM, the “fold change (FC)” value [41] was 10.46 and the GI50 [42] was 7.12 nM. For the same compound, the GI50 [43] was 7.15 nM, the “fold change (FC)” value [44] was “<=2” and the GI50 [45] was 7.68 nM. For the same compound, the GI50 [46] was 2.09 nM, the GI50 [47] was 1.28 nM and the CC50 [47, 50] was 69 nM. For the same compound, the “fold change (FC)” value [48] was “<=2” and the GI50 [49] was 3.94 nM.
